Laboratory results: patent US8828993B2, “Psychotropic agents having glutamate NMDA activity” (Ramot At Tel-Aviv University Ltd., priority 2006, dated 2014)
Counter-ions that a name gives are not always drawn.

How the values were obtained:
rats = test: Morris Water Maze, spatial cognition; format: in vivo
Experimental: (§1) The Morris Water Maze is a well known test aimed to assess spatial cognitive tasks (Anger, et al., Animal test systems to study behavioral dysfunctions of neurodegenerative disorders, Neurotoxicology, 12, 403-13 (1991)). The maze consists of a circular pool measuring 1.80 m in diameter 60 cm in height. The pool was filled with water (21±1° C.) to a depth of 30 cm. A circular hidden escape platform (10 cm in diameter) was placed just below the water surface. The test room contained several permanent extra maze cues such as the rat housing rack, laboratory table, posters on the walls, etc.
as §1, with “tasks.” for “tasks (Anger, et al., Animal test systems to study behavioral dysfunctions of neurodegenerative disorders, Neurotoxicology, 12, 403-13 (1991)).”
In the experiment rats were given Compound 1 orally on day 1 and the first test begun 90 minute later, six trials per day, for 3 consecutive days, to find the hidden platform (acquisition phase). The escape latency, i.e., the time required by the rat to find and climb onto the platform, was recorded for up to 120 sec. Each rat was allowed to remain on the platform for 30 sec, after which it was removed to its home cage.
A video camera was placed above the center of the pool for tracking the rat, and a video tracking system (Noldus) with online digital output directly fed data into a computer. Data were analyzed using EthoVision automated tracking system software (Noldus).

[1] = tested on: amphetamine-induced hyperactivity in mice; test: Amphetamine-induced hyperactivity and stereotypic behavior; format: in vivo; conditions: ICR male mice
Excerpt: The amphetamine-induced hyperactivity and motility is one of the most popular animal models for schizophrenia (Pouzet B, et al., Effects of the 5-HT(7) receptor antagonist SB-258741 in animal models for schizophrenia. Pharmacol Biochem Behav April; 71(4):655-665, 2002 and Geyer, et al., Animal behavior models of the mechanisms underlying antipsychotic atypicalicity, Progress in Neuro-Psychopharmacol & Biological Psychiatry, 27, 1071-79, 2003). Amphetamines are known to augment dopaminergic and noradrenergic neurotransmission by inducing catecholamine release and preventing catecholamine reuptake
The experiment was conducted with ICR male mice placed in individual barrels. […] The locomotor activity, number of rearings and head movements was recorded every 15 minutes for 2 h.
As stated above, the amphetamine-induced hyperactivity and motility is one of the most popular animal models for schizophrenia. The experiment was conducted with ICR male mice placed in individual barrels. Compound 1 (20 mg/kg) was administered p.o to the mice 1 hr prior to i.p. administration of amphetamine (2. mg/kg). The hyper-active behavior expressed by the number of climbings and rearings and the stereotypic behavior expressed by the number of head movements was recorded every 15 minutes over a period of 1 h.
The effect of Compound 3 (12.5, 25 and 50 mg/kg, i.p.) on amphetamine-induced hyperactivity in Balb/c mice was also examined. Animals (6 per group) were injected with Compound 3 (12.5, 25 and 50 mg/kg) and 30 minutes later received amphetamine (2 mg/kg ip). After 30 minutes, animals were exposed to an open field test for a period of 20 minutes.

SMILES: COC(=O)C(N)CN1CCN(C2=Nc3ccccc3Nc3sc(C)cc32)CC1 (stereo not drawn) [Compound 1, 2-amino-3-[4-(2-methyl-10H-thieno[2,3-b][1,5]benzodiazepin-4-yl)-piperazin-1-yl]-propionic acid, methyl ester hydrochloride salt]
- latency to platform (task execution) (rats; 20 mg/kg po, second day): improvement
- latency to platform (learning of the spatial task) (rats; rats, 20 mg/kg po on day 1, first day): faster learning
- latency to platform (rats; rats, 10 and 20 mg/kg po, third day, between all groups): no difference
- rearing behavior, compound alone compared to control animals ([1]; 20 mg/kg p.o.): increased
- increase in head movements induced by amphetamine (stereotypic behavior) ([1]; 20 mg/kg p.o. 1 hr prior to amphetamine 2 mg/kg i.p.): did not attenuate
- hyperactivity induced by amphetamine (number of climbings and rearings) ([1]; 20 mg/kg p.o. 1 hr prior to amphetamine 2 mg/kg i.p., over 1 h): effective in antagonizing
